Test results published in patent US20250326744A1, “PIPERAZINE DERIVATIVE OR SALT THEREOF, AND PHARMACEUTICAL COMPOSITION” (priority 2022, published 2025).
Counter-ions that a name gives are not always drawn.

Legend:
mexB (EC) strain = assay: Efflux ability inhibition effect on drug efflux pump MexB (Test Examples 1 and 3): proliferation (OD595) of mexB (EC) strain with EM or LVFX at 1/4 MIC, EC75; type: cell-based, Escherichia coli; conditions: Table 51, Test Example 1, 16 to 20 hours culture, OD595; for EC75, mexB (EC) strain, EM: combined with EM at 1/4 MIC; for EC75, mexB (EC) strain, LVFX: combined with LVFX at 1/4 MIC
Experimental: (§1) The efflux ability inhibition effect of the test compound on the drug efflux pump was evaluated using the bacterial proliferative ability in the presence of EM or LVFX as an index.
(§2) EM is a macrolide antibacterial agent and is a drug that is discharged outside the bacteria by MexB and MexY LVFX is a quinolone antibacterial agent and is a drug that is discharged outside the bacteria by MexB and MexY In a case where the test compound has an efflux ability inhibitory ability against the drug efflux pump, the proliferation of bacteria is suppressed by the combined use of EM or LVFX and the test compound, as compared with the case where EM or LVFX is used alone.
(§3) A mutant strain (hereinafter, referred to as an “mexB (EC) strain”) obtained by transferring the genes of the main multidrug efflux system MexAB-OprM of Pseudomonas aeruginosa described in Nature, 2013, Vol. 500, pp. 102 to 106 as a plasmid into Escherichia coli strains in which the acrB and tolC genes of the multidrug efflux system AcrAB-TolC were deleted as described in Journal of Infection and Chemotherapy 2008, Vol. 14, pp. 23 to 29, and a gene transfer strain (hereinafter, referred to as an “mexY (EC) strain”) of another main multidrug efflux system MexXY-OprM of Pseudomonas aeruginosa were used for the evaluation of test compounds.
(§4) In the mexB (EC) strain, an expression level of MexB of the drug efflux pump is accelerated, and in the mexY (EC) strain, an expression level of MexY of the drug efflux pump is accelerated.
(§5) For culturing each Escherichia coli strain, a 96-well plate (amount of culture medium per well: 100 μL) was used and Luria-Bertani broth (LB) culture medium was used. The inoculation amount of the bacteria was set to 10^4 to 5 CFU/well.
(§6) The mexB (EC) strain and the mexY (EC) strain were cultured for 16 to 20 hours in a culture medium to which EM or LVFX and test compounds at various concentrations (0 to 800 μM) were added, and the proliferation of the bacterial strains was evaluated by optical turbidity at 595 nm (OD595). The concentration of the antibacterial agents (EM and LVFX) in the culture medium were each set to ¼ of the minimum inhibitory concentration (MIC) (hereinafter, referred to as ¼ MIC) of the single antibacterial agent.
(§7) The proliferation of bacteria in a case where the antibacterial agent was added at the concentration of ¼ MIC in a case where the test compound was not added was measured, and compared with the proliferation of bacteria in a case where the test compound was contained, and the lowest concentration of the test compound at which the proliferation was inhibited by 75% or more was defined as the drug efflux pump inhibitory ability of the test compound as 75% inhibitory effect concentration (EC75).
(§8) The drug efflux pump inhibitory ability of each test compound in a case of being used in combination with the antibacterial agent against the mexB (EC) strain and the mexY (EC) strain was evaluated as follows according to the value of EC75. • S: EC75≤[…] • A: 12.5 μM<EC75≤25 μM • B: 25 μM<EC75≤100 μM • C: […]
(§9) In the same manner as in Test Example 1, the efflux ability inhibition effect of the test compound on the drug efflux pump was evaluated using the bacterial proliferation ability in the presence of EM or LVFX as an index.

mexY (EC) strain = assay: Efflux ability inhibition effect on drug efflux pump MexY (Test Examples 1 and 3): proliferation (OD595) of mexY (EC) strain with EM or LVFX at 1/4 MIC, EC75; type: cell-based, Escherichia coli; conditions: Table 53, Test Example 3; combined with EM at 1/4 MIC; same manner as Test Example 1
Experimental: as §1, §2, §3, §4, §5, §6, §7, §8, §9

mexB (PA) strain = assay: Combinational effect with antibacterial agent against Pseudomonas aeruginosa (Test Examples 2 and 4): mexB (PA) strain with LVFX, TC or AZT at 1/4 MIC, EC99; type: cell-based; conditions: mexB (PA) strain, Test Example 4
Method in brief: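 EC99 denotes the minimum test-compound concentration (range 0–800 μM) that suppresses ≥99% of growth, measured by OD595, when combined with ¼ MIC levofloxacin (LVFX), tetracycline or aztreonam. The efflux-pump mutant mexB (PA), expressing mainly MexAB-OprM, was inoculated at 10^4–5 CFU/well in CAMHB for 16–20 h.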

S-3769 strain = assay: Combinational effect with antibacterial agent against Pseudomonas aeruginosa (Test Examples 2 and 4): S-3769 strain with AMK or GM at 1/4 MIC, EC99; type: cell-based; conditions: S-3769 strain, Test Example 4
Method in brief: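 EC99, the lowest test-compound concentration inhibiting growth by ≥99% (OD595), was measured with aminoglycoside AMK or GM held at ¼ MIC. Strain S-3769, a MexY-overexpressing clinical isolate, was cultured in CAMHB at 10^4 to 5 CFU/well for 16–20 h; compound range 0–800 μM.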

Compound	EC75, mexB (EC) strain, EM (mexB (EC) strain)	EC75, mexB (EC) strain, LVFX (mexB (EC) strain)	other results
CCOc1cccc(/C=C/c2nnn[nH]2)c1CN1CCN(C(=O)[C@H](N)C2CCN(CCc3ccccc3)CC2)CC1 [Example 33, Hydrobromide of (R,E)-1-(4-(2-(2-(1H-tetrazol-5-yl)vinyl)-6-ethoxybenzyl)piperazin-1-yl)-2-amino-2-(1-phenethylpiperidin-4-yl) ethan-1-one]	B (25 μM<EC75≤100 μM)	B (25 μM<EC75≤100 μM)	–
N[C@@H](C(=O)N1CCN(Cc2cccc3cc[nH]c23)CC1)C1CCN(CCc2cc(Cl)ccc2-c2ccccc2)CC1 [Example 40, Hydrobromide of (R)-1-(4-((1H-indol-7-yl)methyl)piperazin-1-yl)-2-amino-2-(1-(2-(4-chloro-[1,1′-biphenyl]-2-yl)ethyl)piperidin-4-yl) ethan-1-one]	–	B (25 μM<EC75≤100 μM)	–
CCOc1cccc(F)c1CN1CCN(C(=O)[C@H](N)C2CCN(CCc3cc(Cl)ccc3-c3cccc(F)c3)CC2)CC1 [Example 60, Hydrobromide of (R)-2-amino-2-(1-(2-(4-chloro-3′-fluoro-[1,1′-biphenyl]-2-yl)ethyl)piperidin-4-yl)-1-(4-(2-ethoxy-6-fluorobenzyl)piperazin-1-yl)ethan-1-one]	A (12.5 μM<EC75≤25 μM)	–	–
CCOc1cccc(F)c1CN1CCN(C(=O)[C@H](N)C2CCN(CCc3ccccc3C(=O)OC)CC2)CC1 [Example 129, Hydrochloride of Methyl (R)-2-(2-(4-(1-amino-2-(4-(2-ethoxy-6-fluorobenzyl)piperazin-1-yl)-2-oxoethyl)piperidin-1-yl)ethyl)benzoate]	A (12.5 μM<EC75≤25 μM)	–	–
CCOc1cccc(F)c1CN1CCN(C(=O)[C@H](N)C2CCN(CCc3cccc(O)c3)CC2)CC1 [Example 130, Hydrochloride of (R)-2-amino-1-(4-(2-ethoxy-6-fluorobenzyl)piperazin-1-yl)-2-(1-(3-hydrophenethyl)piperidin-4-yl) ethan-1-one]	B (25 μM<EC75≤100 μM)	A (12.5 μM<EC75≤25 μM)	–
CCOc1cccc(F)c1CN1CCN(C(=O)[C@H](N)C2CCN(CCc3ccccc3N)CC2)CC1 [Example 146, Hydrobromide of (R)-2-amino-2-(1-(2-aminophenethyl)piperidin-4-yl)-1-(4-(2-ethoxy-6-fluorobenzyl)piperazin-1-yl) ethan-1-one]	A (12.5 μM<EC75≤25 μM)	–	–
CCOc1cccc(F)c1CN1CCN(C(=O)[C@H](N)C2CCN(CCc3cn(-c4ccccc4F)c4ccccc34)CC2)CC1 [Example 157, Hydrobromide of (R)-2-amino-1-(4-(2-ethoxy-6-fluorobenzyl)piperazin-1-yl)-2-(1-(2-(1-(2-fluorophenyl)-1H-indol-3-yl)ethyl)piperidin-4-yl)ethan-1-one]	A (12.5 μM<EC75≤25 μM)	A (12.5 μM<EC75≤25 μM)	–
CCOc1cccc(F)c1CN1CCN(C(=O)[C@H](N)C2CCN(CCc3nsc4ccccc34)CC2)CC1 [Example 160, Hydrobromide of (R)-2-amino-2-(1-(2-(benzo[d]isothiazol-3-yl)ethyl)piperidin-4-yl)-1-(4-(2-ethoxy-6-fluorobenzyl)piperazin-1-yl)ethan-1-one]	A (12.5 μM<EC75≤25 μM)	A (12.5 μM<EC75≤25 μM)	–
CN(C)c1ccccc1CN1CCN(C(=O)CN2CCN(CCc3ccccc3)CC2)CC1 [Example 224, Hydrochloride of 1-(4-(2-(dimethylamino)benzyl)piperazin-1-yl)-2-(4-phenethylpiperazin-1-yl)ethan-1-one]	–	A (12.5 μM<EC75≤25 μM)	–
N#Cc1ccccc1CN1CCN(C(=O)CN2CCN(CCc3ccccc3)CC2)CC1 [Example 234, Hydrochloride of 2-((4-(2-(4-phenethylpiperazin-1-yl)acetyl)piperazin-1-yl)methyl)benzonitrile]	–	B (25 μM<EC75≤100 μM)	–
O=C(CN1CCN(CCc2ccccc2)CC1)N1CCN(Cc2ccccc2[N+](=O)[O-])CC1 [Example 235, Hydrochloride of 1-(4-(2-nitrobenzyl)piperazin-1-yl)-2-(4-phenethylpiperazin-1-yl) ethan-1-one]	B (25 μM<EC75≤100 μM)	B (25 μM<EC75≤100 μM)	–
O=C(CN1CCN(CCc2ccccc2)CC1)N1CCN(Cc2sccc2Cl)CC1 [Example 251, Hydrochloride of 1-(4-((3-chlorothiophen-2-yl)methyl)piperazin-1-yl)-2-(4-phenethylpiperazin-1-yl)ethan-1-one]	A (12.5 μM<EC75≤25 μM)	B (25 μM<EC75≤100 μM)	–
O=C(CN1CCN(CCc2ccccc2)CC1)N1CCN(Cc2ccccc2F)CC1 [Example 259, hydrochloride of 1-(4-(2-fluorobenzyl)piperazin-1-yl)-2-(4-phenethylpiperazin-1-yl)ethan-1-one]	A (12.5 μM<EC75≤25 μM)	–	–
O=C(CN1CCN(CCc2ccccc2)CC1)N1CCN(Cc2ccccc2CO)CC1 [Example 262, Hydrochloride of 1-(4-(2-(hydroxymethyl)benzyl)piperazin-1-yl)-2-(4-phenethylpiperazin-1-yl)etban-1-one]	A (12.5 μM<EC75≤25 μM)	B (25 μM<EC75≤100 μM)	–
COCc1ccccc1CN1CCN(C(=O)CN2CCN(CCc3ccccc3)CC2)CC1 [Example 263, Hydrochloride of 1-(4-(2-(methoxymethyl)benzyl)piperazin-1-yl)-2-(4-phenethylpiperazin-1-yl)ethan-1-one]	A (12.5 μM<EC75≤25 μM)	A (12.5 μM<EC75≤25 μM)	–
COc1cccc(OCCN)c1CN1CCN(C(=O)CN2CCN(CCc3ccccc3)CC2)CC1 [Example 266, hydrochloride of 1-(4-(2-(2-aminoethoxy)-6-methoxybenzyl)piperazin-1-yl)-2-(4-phenethylpiperazin-1-yl)ethan-1-one]	–	B (25 μM<EC75≤100 μM)	–
CCSc1cc(F)ccc1CN1CCN(C(=O)[C@H](N)C2CCN(CCc3cc(Cl)ccc3-c3ccccc3Cl)CC2)CC1 [Example 599, Hydrochloride of (R)-2-amino-2-(1-(2-(2′,4-dichloro-[1,1-biphenyl]-2-yl)ethyl)piperidin-4-yl)-1-(4-(2-(ethylthio)-4-fluorobenzyl)piperazin-1-yl)ethan-1-one]	–	–	EC75, mexY (EC) strain, EM (mexY (EC) strain): A (12.5 μM<EC75≤25 μM); EC99, combinational effect with AZT, mexB (PA) (mexB (PA) strain; combined with AZT at 1/4 MIC): S (EC99≤12.5 μM); EC99, combinational effect with LVFX, mexB (PA) (mexB (PA) strain; combined with LVFX at 1/4 MIC): S (EC99≤12.5 μM); EC99, combinational effect with TC, mexB (PA) (mexB (PA) strain; combined with TC at 1/4 MIC): S (EC99≤12.5 μM); EC99, combinational effect with AMK, S-3769 strain (S-3769 strain; combined with AMK at 1/4 MIC): B (25 μM<EC99≤100 μM); EC99, combinational effect with GM, S-3769 strain (S-3769 strain; combined with GM at 1/4 MIC): S (EC99≤12.5 μM)
